Molecular target: Albumin (Bos taurus, UniProt P02769)
Sequence (P02769 whole entry): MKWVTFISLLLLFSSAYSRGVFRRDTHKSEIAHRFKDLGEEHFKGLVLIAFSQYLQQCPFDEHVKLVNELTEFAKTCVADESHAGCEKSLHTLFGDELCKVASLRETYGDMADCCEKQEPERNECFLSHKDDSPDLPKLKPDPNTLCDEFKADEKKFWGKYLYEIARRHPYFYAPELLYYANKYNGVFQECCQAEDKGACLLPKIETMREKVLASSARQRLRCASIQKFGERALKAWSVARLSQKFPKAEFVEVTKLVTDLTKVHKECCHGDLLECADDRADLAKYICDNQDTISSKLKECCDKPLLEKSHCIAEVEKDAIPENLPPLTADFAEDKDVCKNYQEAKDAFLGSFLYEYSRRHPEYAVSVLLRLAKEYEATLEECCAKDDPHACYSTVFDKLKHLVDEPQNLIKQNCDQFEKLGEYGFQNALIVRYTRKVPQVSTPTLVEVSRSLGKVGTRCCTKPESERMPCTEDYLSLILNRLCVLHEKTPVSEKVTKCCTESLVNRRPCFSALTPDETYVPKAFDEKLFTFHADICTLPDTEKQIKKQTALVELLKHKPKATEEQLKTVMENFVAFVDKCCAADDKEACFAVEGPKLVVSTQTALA

IC50 [µM]	Structure (SMILES)
> 94.1	O=C(N/N=C/C1C=C([N+](=O)[O-])C=CC1=O)c1cccc(N2CCCC2=O)c1 (stereo not drawn)
> 94.1	CC1=CC(/C=N/n2c(COc3ccccc3C)nc3ccccc3c2=O)C(=O)C([N+](=O)[O-])=C1 (stereo not drawn)
> 94.1	CCc1n[nH]c(=S)n1N=CC1C=C(OC)C=C([N+](=O)[O-])C1=O (stereo not drawn) [(6E)-6-[[(3-ethyl-5-sulfanylidene-1H-1,2,4-triazol-4-yl)amino]methylidene]-4-methoxy-2-nitro-1-cyclohexa-2,4-dienone]
> 94.1	COc1ccc(C(=O)CC=NNC(=O)c2ccc(Cl)cc2)cc1 [SMR000499516]
> 94.1	CCOC(=O)C1C(CC)=Nc2ccccc2N=C1NC(=O)Nc1ccc(Cl)c(Cl)c1 (stereo not drawn)
> 94.1	Cc1c(NC(=S)NN=CC2C=C([N+](=O)[O-])C=CC2=O)c(=O)n(-c2ccccc2)n1C (stereo not drawn) [SMR000415003]
> 94.1	O=C(CSc1nc2ccccc2s1)N/N=C/C1C=C([N+](=O)[O-])C=CC1=O (stereo not drawn) [MLS000777065]
> 94.1	COC1=CC(=O)C(/C=N/NC(=O)c2ccncc2)C(OC)=C1[N+](=O)[O-] (stereo not drawn) [MLS000673335]
> 94.1	O=C(N/N=C/C1C=C(Cl)C=C([N+](=O)[O-])C1=O)c1cccc(S(=O)(=O)N2CCOCC2)c1 (stereo not drawn) [MLS002155639]
> 94.1	COc1ccc(CC(=O)N/N=C/C2C=C([N+](=O)[O-])C=C(Br)C2=O)cc1 (stereo not drawn)
> 94.1	CC(NNC(=O)c1ccc(-c2ccccc2)cc1)=C1C(=O)c2ccccc2C1=O [N-[(E)-1-(1,3-dioxoinden-2-yl)ethylideneamino]-4-phenylbenzamide]
> 94.1	O=C1CC(=O)c2c(O)cc(O)c(O)c2C1=O [4,5,7,8-tetrahydroxy-1,2-naphthoquinone]
> 94.1	CC1=CC(/C=N/n2c(CO[N-][C+](C)c3ccccc3)nc3ccccc3c2=O)C(=O)C([N+](=O)[O-])=C1 (stereo not drawn)
> 94.1	O=C1C([N+](=O)[O-])=CC=CC1/C=N/n1cnc2scc(-c3ccc(Cl)cc3)c2c1=O (stereo not drawn) [SMR000314525]
> 94.1	O=C(N/N=C/C1C=C([N+](=O)[O-])C=CC1=O)/C(=C\c1cccs1)NC(=O)c1ccccc1 (stereo not drawn) [MLS000332530]
> 94.1	O=C(NN=CC1=CC(=O)C(=O)CC1)NN=CC1=CC(=O)C(=O)CC1 [1,3-bis[[(Z)-(3-hydroxy-4-oxocyclohexa-2,5-dien-1-ylidene)methyl]amino]urea]
> 94.1	Cc1cc(=O)oc2cc(OCC(=O)N/N=C/C3C=C([N+](=O)[O-])C=CC3=O)ccc12 (stereo not drawn) [MLS000588734]
> 94.1	O=C(N/N=C/C1C=CC=C([N+](=O)[O-])C1=O)c1cccs1 (stereo not drawn)
> 94.1	CCOC(=O)c1c(C)[nH]c(C(=O)N/N=C/C2C=C([N+](=O)[O-])C=CC2=O)c1C (stereo not drawn) [ethyl 2,4-dimethyl-5-[[[(E)-(3-nitro-6-oxocyclohexa-2,4-dien-1-ylidene)methyl]amino]carbamoyl]-1H-pyrrole-3-carboxylate]
> 94.1	Nc1nnc(CC(=O)N/N=C/C2C=C([N+](=O)[O-])C=CC2=O)s1 (stereo not drawn) [2-(5-amino-1,3,4-thiadiazol-2-yl)-N'-[(E)-(3-nitro-6-oxo-1-cyclohexa-2,4-dienylidene)methyl]acetohydrazide]
> 94.1	C=CCN1C(=O)/C(=N\NC(=O)CNC(=O)/C=C/c2ccco2)c2ccccc21 [(E)-N-[1-Allyl-2-oxo-1,2-dihydro-indol-(3Z)-ylidene-hydrazinocarbonylmethyl]-3-furan-2-yl-acrylamide]

IC50 [µM]	Structure (SMILES)
> 94.1	Cc1cc(C(=O)N/N=C/C2C=C(Cl)C=C([N+](=O)[O-])C2=O)c2ccccc2n1 (stereo not drawn) [N'-[(E)-(3-chloranyl-5-nitro-6-oxidanylidene-cyclohexa-2,4-dien-1-ylidene)methyl]-2-methyl-quinoline-4-carbohydrazide]
> 94.1	O=C(CNC(=O)c1ccccc1Br)N/N=C/C1C=C([N+](=O)[O-])C=C(Br)C1=O (stereo not drawn) [2-bromanyl-N-[2-[2-[(E)-(5-bromanyl-3-nitro-6-oxidanylidene-cyclohexa-2,4-dien-1-ylidene)methyl]hydrazinyl]-2-oxidanylidene-ethyl]benzamide]
> 94.1	CN1C(=O)C(C=NNC(=O)c2cc3ccccc3cc2O)c2ccccc21 (stereo not drawn) [MLS000912237]
> 94.1	Cc1cc(C(=O)N/N=C/C2C=C(Br)C=C([N+](=O)[O-])C2=O)c2ccccc2n1 (stereo not drawn) [MLS000585468]
> 94.1	COC1=CC([N+](=O)[O-])=CC(/C=N/NC(=O)c2cc(C)nc3ccccc23)C1=O (stereo not drawn)
> 94.1	O=C(NC(C(=O)NN=CC1C=C([N+](=O)[O-])C=CC1=O)c1n[nH]c(=O)c2ccccc12)c1ccccc1 (stereo not drawn) [N-[2-[2-[(E)-(3-nitro-6-oxidanylidene-cyclohexa-2,4-dien-1-ylidene)methyl]hydrazinyl]-2-oxidanylidene-1-(4-oxidanylidene-3H-phthalazin-1-yl)ethyl]benzamide]
> 94.2	Oc1c(Br)cc(CC=Nc2cc(O)c3cccnc3c2O)cc1Br [7-[2-(3,5-dibromo-4-hydroxyphenyl)ethylamino]quinoline-5,8-dione]
> 94.1	Cc1cc(C(=O)NN=CC2C=C(Cl)C=C([N+](=O)[O-])C2=O)[nH]n1 (stereo not drawn) [SMR000414694]
> 94.1	O=C1C([N+](=O)[O-])=CC(Cl)=CC1C=NNC(=S)Nc1ccc(S(=O)(=O)N2CCOCC2)cc1 (stereo not drawn) [1-[[(E)-(3-chloro-5-nitro-6-oxo-1-cyclohexa-2,4-dienylidene)methyl]amino]-3-[4-(4-morpholinylsulfonyl)phenyl]thiourea]
> 94.1	O=C1C=CC([N+](=O)[O-])=CC1/C=N/n1c(COc2ccccc2)nc2ccccc2c1=O (stereo not drawn) [3-[[(E)-(3-nitro-6-oxocyclohexa-2,4-dien-1-ylidene)methyl]amino]-2-(phenoxymethyl)quinazolin-4-one]
> 94.2	O=Nc1[nH]c(=O)c(CC(=O)c2ccccc2)nc1NO [SMR000539633]
> 94.1	Cc1ccc(C(=O)Nc2nc(C(C)(C)C)cs2)s1 [N-(4-tert-butyl-2-thiazolyl)-5-methyl-2-thiophenecarboxamide]
> 94.1	O=C(N/N=C/C1C=C(Cl)C=C([N+](=O)[O-])C1=O)c1ccc2c(c1)OCO2 (stereo not drawn) [N'-[(E)-(3-chloranyl-5-nitro-6-oxidanylidene-cyclohexa-2,4-dien-1-ylidene)methyl]-1,3-benzodioxole-5-carbohydrazide]
> 94.1	O=C(N/N=C/C1C=C([N+](=O)[O-])C=C([N+](=O)[O-])C1=O)/C(=C\c1cccs1)NC(=O)c1ccccc1 (stereo not drawn) [SMR000207704]
> 94.1	O=C1C=CC([N+](=O)[O-])=CC1C=NNC(=S)Nc1ccc(Cl)cc1Cl (stereo not drawn) [MLS000777079]
> 94.1	O=C(O)c1ccccc1NS(=O)(=O)c1ccc(N=NCc2ccc(O)c(O)c2)c([N+](=O)[O-])c1 [SMR001238114]
> 94.1	Oc1ccc(CN=Nc2ncnc3c2ncn3Cc2ccccc2)cc1O [(4Z)-2-oxidanyl-4-[[2-[9-(phenylmethyl)purin-6-yl]hydrazinyl]methylidene]cyclohexa-2,5-dien-1-one]
> 94.2	CC1=CC([N+](=O)[O-])=CC(/C=N/NC(=O)C2COc3ccccc3O2)C1=O (stereo not drawn) [N'-[(E)-(5-methyl-3-nitro-6-oxocyclohexa-2,4-dien-1-ylidene)methyl]-2,3-dihydro-1,4-benzodioxine-3-carbohydrazide]
> 94.1	Cc1cc2cc(CNC(=O)c3ccc(C)c([N+](=O)[O-])c3)ccc2[nH]1 [MLS000724615]
> 94.1	Cc1ccccc1C(=O)Nc1cccc(C(=O)N/N=C/C2C=C(Cl)C=C([N+](=O)[O-])C2=O)c1 (stereo not drawn) [N-(3-{[(2E)-2-(5-chloro-2-hydroxy-3-nitrobenzylidene)hydrazino]carbonyl}phenyl)-2-methylbenzamide]
> 94.1	O=[N+]([O-])c1cc(Br)c(O)c(CN=Nc2nnnn2-c2cccc3ccccc23)c1 [(6E)-2-bromo-6-[[2-(1-naphthalen-1-yltetrazol-5-yl)hydrazinyl]methylidene]-4-nitrocyclohexa-2,4-dien-1-one]

Structure (SMILES)	IC50 [µM]
CC1=CC([N+](=O)[O-])=CC(/C=N/n2c(C)nc3ccccc3c2=O)C1=O (stereo not drawn) [MLS000778735]	> 94
